{"source": "patent US6572788B2", "about": "“Amine oxide wood preservatives” (Lonza, Inc., priority 2000, dated 2003); as to Rating of treated tulip sections vs. Time: key: 4 - Clean with no visible stain or mold; 3 - Trace amount of white/black fungal growth; 2 - Black and/or white fungal growth visible on all faces and ends; 1 - Heavy fungal growth; as to Rating of treated white birch sections vs. Time: key: 4 - Clean with no visible stain or mold; 3 - Trace amount of white/black fungal growth; 2 - Black and/or white fungal growth visible on all faces and ends; 1 - Heavy fungal growth", "key": {"Decay": {"test_system": "Decay", "test": "Field stake test (AWPA E7), southern yellow pine stakes in ground: decay", "conditions": "10 stakes, 10 = all stakes intact and free of decay, 0 = completely decayed", "description": "(§1) 40″ by ¾″ by ¾″ pieces of southern yellow pine lumber were treated with the aqueous solution prepared in Example 1 according to the procedure described in the American Wood Preservers' Association test method E7, which is hereby incorporated by reference. The procedure is generally as follows. The southern yellow pine lumber pieces were placed in a pressure treating cylinder for about 30 minutes at about −90 kPa, injected with the aqueous solution, and pressurized to about 800 kPa for about 30 minutes. The pressure was released by the addition of air and the solution was drained.\n(§2) This procedure was repeated with aqueous solutions containing 0.5 or 1.0% by weight of copper chromium arsenate (CCA) and aqueous solutions containing 0.5, 1.0, or 1.5% by weight of didecyl dimethyl ammonium chloride (DDAC).\n(§3) After 11 months, the stakes were observed."}, "[1]": {"test_system": "Gloeophyllum trabeum (G. trabeum), a brown rot fungus", "test": "Agar plate method, fungus growth inhibition", "type": "cell-based", "description": "(§4) The efficacy of aqueous solutions of amine oxides and didecyldimethyl ammonium chloride to inhibit fungus growth was evaluated by the agar plate method known in the art. […] The fungi tested were Trametes versicolor (T. versicolor), a white rot fungus; Gloeophyllum trabeum (G. trabeum), a brown rot fungus which is tolerant of arsenic and phenolic type wood preservatives; Poria placenta (P. placenta), a brown rot fungus which is tolerant to copper in wood preservatives; Lentinus lepideus (L. lepideus), a brown rot fungus which is tolerant to creosote; Coniophora puteana (C. puteana), a brown rot fungus; and Chaetomium globsum (C. globsum), a soft rot fungus."}, "[2]": {"test_system": "Poria placenta (P. placenta), a brown rot fungus", "test": "Agar plate method, fungus growth inhibition", "type": "cell-based", "description": "as §4"}, "[3]": {"test_system": "Trametes versicolor (T. versicolor), a white rot fungus", "test": "Agar plate method, fungus growth inhibition", "type": "cell-based", "conditions": "50% retardation of growth", "description": "as §4"}, "[4]": {"test_system": "Chaetomium globsum (C. globsum), a soft rot fungus", "test": "Agar plate method, fungus growth inhibition", "type": "cell-based", "description": "as §4"}, "stains, molds, and fungi [5]": {"test_system": "stains, molds, and fungi", "test": "Wood preserving efficacy on freshly cut tulip wood (dip treatment)", "description": "The wood preserving efficacy of each aqueous test solution in Table 17 below was tested on freshly cut tulip wood (also known as Tulip-Popular, Yellow Popular, and Liriodendron tulipfera L.) as follows. All percentages in Table 17 are by weight. Pieces of tulip wood cut from a 4″ debarked branch were cut into pieces. Each piece was then split into 4 sections. Each section was dipped into the test solution for about 1 minute and blotted with a paper towel to remove excess liquid. The sections were sealed in a clear plastic bag and stored at ambient conditions. The sections were observed after 1, 3, 7, and 11 weeks for the growth of stains, molds, and fungi. The aqueous test solutions were prepared by mixing the active ingredient with water."}, "Termite": {"test_system": "Termite", "test": "Field stake test (AWPA E7), southern yellow pine stakes in ground: termite attack", "conditions": "10 stakes, 10 = free of termite attack, 0 = completely attacked", "description": "as §1, §2, §3"}, "stains, molds, and fungi [6]": {"test_system": "stains, molds, and fungi", "test": "Wood preserving efficacy on freshly cut beech wood (dip treatment)", "conditions": "beech wood pieces (Example 15)", "description": "The wood preserving efficacy of each aqueous test solution in Table 18 below was tested on freshly cut beech wood (Fagus grandifolia Ehrh.) as follows. All percentages in Table 18 are by weight. A 1″ branch of a beech tree was split into two pieces. The bark was left on the pieces. Each piece was dipped into the test solution for about 1 minute and blotted with a paper towel to remove excess liquid. […] The aqueous test solutions were prepared by mixing the active ingredient with water."}, "stains, molds, and fungi [7]": {"test_system": "stains, molds, and fungi", "test": "Wood preserving efficacy on freshly cut white birch wood (dip treatment, sealed bag)", "set-up": "scale not given here", "description": "The wood preserving efficacy of each aqueous test solution in Table 1 below was tested on freshly cut white birch wood as follows. All percentages in Table 1 are by weight. A branch of white birch tree measuring about 3 inches in diameter was cut into pieces about 6 inch in length. Each piece was then split into 4 sections. Each section was dipped into the test solution for about 1 minute and blotted with a paper towel to remove excess liquid. The sections were sealed in a clear plastic bag and stored at ambient conditions. The sections were observed after 1, 3, 7, and 12 weeks for the growth of stains, molds, and fungi. The aqueous test solutions were prepared by mixing the active ingredient with water."}, "stains, molds, and fungi [8]": {"test_system": "stains, molds, and fungi", "test": "Wood preserving efficacy on freshly cut green chestnut oak (dip treatment)", "set-up": "scale not given here"}, "[9]": {"test_system": "Lentinus lepideus (L. lepideus), a brown rot fungus", "test": "Agar plate method, fungus growth inhibition", "type": "cell-based", "description": "as §4"}, "[10]": {"test_system": "Coniophora puteana (C. puteana), a brown rot fungus", "test": "Agar plate method, fungus growth inhibition", "type": "cell-based", "description": "as §4"}, "[11]": {"test_system": "C. globosum (soft rot decay fungi)", "test": "Agar dilution plate method, wood rot fungi", "type": "cell-based", "conditions": "C. globosum, 100% growth retardation, Table 14", "description": "(§5) The efficacy of the aqueous amine oxide solutions in Table 14 at various concentrations against the wood rot fungi T. versicolor (white rot fungi), G. trabeum (brown rot fungi), P. placenta (brown rot fungi), and C. globosum (soft rot decay fungi) were determined using the agar dilution plate method well known in the art. […] The percent retardation of the fungi was determined by the percentage change in the diameter of the fungi on the agar plate (i.e. Percent Retardation=((Diameter of Control)−(Diameter of Treated Fungi))/(Diameter of Control)*100%)."}, "[12]": {"test_system": "G. trabeum (brown rot fungi)", "test": "Agar dilution plate method, wood rot fungi", "type": "cell-based", "conditions": "G. trabeum, 100% growth retardation, Table 14", "description": "as §5"}, "[13]": {"test_system": "T. versicolor (white rot fungi)", "test": "Agar dilution plate method, wood rot fungi", "type": "cell-based", "conditions": "T. versicolor, 100% growth retardation, Table 14", "description": "as §5"}, "[14]": {"test_system": "P. placenta (brown rot fungi)", "test": "Agar dilution plate method, wood rot fungi", "type": "cell-based", "conditions": "P. placenta, 100% growth retardation, Table 14", "description": "as §5"}, "[15]": {"conditions": "Field Site A, listed as 0.5% (w/w) DDAC"}, "[16]": {"conditions": "Field Site A, listed as 1.0% (w/w) DDAC"}, "[17]": {"conditions": "Field Site A, listed as […] (w/w) DDAC"}}, "data": [{"molecule": "CCCCCCCCCC[N+](C)(C)CCCCCCCCCC.[Cl-]", "note": "[Didecyldimethyl ammonium chloride, didecyldimethylammonium chloride, reference compound]", "values": [{"measurement": "Rating after 11 Months, Decay", "setting": "Decay; [15]", "value": "9.9 ± 0.3"}, {"measurement": "Rating after 11 Months, Decay", "setting": "Decay; [16]", "value": 10}, {"measurement": "Rating after 11 Months, Decay", "setting": "Decay; [17]", "value": 10}, {"measurement": "Rating after 11 Months, Decay", "setting": "Decay; Field Site B", "value": 10}, {"measurement": "IC50", "setting": "[1]", "value": "10-40 ppm"}, {"measurement": "IC50", "setting": "[2]", "value": "5-25 ppm"}, {"measurement": "IC50", "setting": "[3]", "value": "30-50 ppm"}, {"measurement": "IC50", "setting": "[4]", "value": "10-20 ppm"}, {"measurement": "Rating of treated tulip sections vs. Time", "setting": "stains, molds, and fungi [5]; 1 week", "value": 4}, {"measurement": "Rating of treated tulip sections vs. Time", "setting": "stains, molds, and fungi [5]; 3 weeks", "value": 4}, {"measurement": "Rating of treated tulip sections vs. Time", "setting": "stains, molds, and fungi [5]; 7 weeks, listed as 0.32% Didecyldimethyl ammonium chloride", "value": 3.5}, {"measurement": "Rating of treated tulip sections vs. Time", "setting": "stains, molds, and fungi [5]; 7 weeks, listed as 0.65% Didecyldimethyl ammonium chloride", "value": 4}, {"measurement": "Rating of treated tulip sections vs. Time", "setting": "stains, molds, and fungi [5]; 11 weeks, listed as 0.32% Didecyldimethyl ammonium chloride", "value": 3.5}, {"measurement": "Rating of treated tulip sections vs. Time", "setting": "stains, molds, and fungi [5]; 11 weeks, listed as 0.65% Didecyldimethyl ammonium chloride", "value": 4}, {"measurement": "Rating after 11 Months, Termite Attack", "setting": "Termite; [15]", "value": "9.3 ± 0.9"}, {"measurement": "Rating after 11 Months, Termite Attack", "setting": "Termite; [16]", "value": "9.9 ± 0.3"}, {"measurement": "Rating after 11 Months, Termite Attack", "setting": "Termite; [17]", "value": "8.9 ± 1.3"}, {"measurement": "Rating after 11 Months, Termite Attack", "setting": "Termite; Field Site B", "value": 10}, {"measurement": "Rating of treated tulip sections vs. Time", "setting": "stains, molds, and fungi [6]; 1 week", "value": 4}, {"measurement": "Rating of treated tulip sections vs. Time", "setting": "stains, molds, and fungi [6]; 3 weeks, listed as 0.32% Didecyldimethyl ammonium chloride", "value": 2}, {"measurement": "Rating of treated tulip sections vs. Time", "setting": "stains, molds, and fungi [6]; 3 weeks, listed as 0.65% Didecyldimethyl ammonium chloride", "value": 3.5}, {"measurement": "Rating of treated tulip sections vs. Time", "setting": "stains, molds, and fungi [6]; 7 weeks", "value": 2}, {"measurement": "Rating of treated tulip sections vs. Time", "setting": "stains, molds, and fungi [6]; 11 weeks", "value": 2}, {"measurement": "Rating of treated white birch sections vs. Time", "setting": "stains, molds, and fungi [7]; 1 week", "value": 4}, {"measurement": "Rating of treated white birch sections vs. Time", "setting": "stains, molds, and fungi [7]; 3 weeks", "value": 4}, {"measurement": "Rating of treated white birch sections vs. Time", "setting": "stains, molds, and fungi [7]; 7 weeks", "value": 3}, {"measurement": "Rating of treated white birch sections vs. Time", "setting": "stains, molds, and fungi [7]; 12 weeks", "value": 3}, {"measurement": "Rating of treated green chestnut oak sections vs. Time", "setting": "stains, molds, and fungi [8]; 2 weeks", "value": 3}, {"measurement": "Rating of treated green chestnut oak sections vs. Time", "setting": "stains, molds, and fungi [8]; 4 weeks", "value": 2}, {"measurement": "Rating of treated green chestnut oak sections vs. Time", "setting": "stains, molds, and fungi [8]; 5 weeks", "value": 2}, {"measurement": "Rating of treated green chestnut oak sections vs. Time", "setting": "stains, molds, and fungi [8]; 9 weeks", "value": 1}]}, {"molecule": "CCCCCCCCCCCCCCCC[N+](C)(C)[O-]", "note": "[Hexadecyl dimethylamine oxide, hexadecyl dimethylamine oxide]", "values": [{"measurement": "IC50", "setting": "[9]", "value": 3, "unit": "ppm"}, {"measurement": "IC50", "setting": "[1]", "value": "25-30 ppm"}, {"measurement": "IC50", "setting": "[10]", "value": 80, "unit": "ppm"}, {"measurement": "IC50", "setting": "[2]", "value": "5-25 ppm"}, {"measurement": "IC50", "setting": "[3]", "value": 30, "unit": "ppm"}, {"measurement": "IC50", "setting": "[4]", "value": "20-50 ppm"}, {"measurement": "MIC", "setting": "[11]; Chaetomium globosum, read-out: MIC (ppm of amine oxides)", "value": "> 1000", "unit": "µg/mL"}, {"measurement": "MIC", "setting": "[12]; Gloeophyllum trabeum, read-out: MIC (ppm of amine oxides)", "value": "> 1000", "unit": "µg/mL"}, {"measurement": "MIC", "setting": "[13]; Trametes versicolor, read-out: MIC (ppm of amine oxides)", "value": "> 1000", "unit": "µg/mL"}, {"measurement": "MIC", "setting": "[14]; read-out: MIC (ppm of amine oxides)", "value": "> 1000", "unit": "µg/mL"}, {"measurement": "Rating of treated white birch sections vs. Time", "setting": "stains, molds, and fungi [7]; 1 week", "value": 3}, {"measurement": "Rating of treated white birch sections vs. Time", "setting": "stains, molds, and fungi [7]; 3 weeks", "value": 2}, {"measurement": "Rating of treated white birch sections vs. Time", "setting": "stains, molds, and fungi [7]; 7 weeks", "value": 2}, {"measurement": "Rating of treated white birch sections vs. Time", "setting": "stains, molds, and fungi [7]; 12 weeks", "value": 2}]}, {"molecule": "Coco-dimethylamine oxide", "values": [{"measurement": "IC50", "setting": "[9]", "value": 15, "unit": "ppm"}, {"measurement": "IC50", "setting": "[1]", "value": "10-15 ppm"}, {"measurement": "IC50", "setting": "[10]", "value": 80, "unit": "ppm"}, {"measurement": "IC50", "setting": "[2]", "value": "3-7 ppm"}, {"measurement": "IC50", "setting": "[3]", "value": "40-50 ppm"}, {"measurement": "IC50", "setting": "[4]", "value": "50-70 ppm"}, {"measurement": "MIC (ppm of amine oxides)", "setting": "[11]", "value": ">1000", "unit": "ppm"}, {"measurement": "MIC (ppm of amine oxides)", "setting": "[12]", "value": 500, "unit": "ppm"}, {"measurement": "MIC (ppm of amine oxides)", "setting": "[13]", "value": 750, "unit": "ppm"}, {"measurement": "MIC (ppm of amine oxides)", "setting": "[14]", "value": "500-1000 ppm"}, {"measurement": "Rating of treated white birch sections vs. Time", "setting": "stains, molds, and fungi [7]; 1 week", "value": 4}, {"measurement": "Rating of treated white birch sections vs. Time", "setting": "stains, molds, and fungi [7]; 3 weeks", "value": 4}, {"measurement": "Rating of treated white birch sections vs. Time", "setting": "stains, molds, and fungi [7]; 7 weeks", "value": 3}, {"measurement": "Rating of treated white birch sections vs. Time", "setting": "stains, molds, and fungi [7]; 12 weeks", "value": 2}]}]}
